Test results reported in the NIST ThermoML archive (doi:10.1021/acs.jced.9b00752).
“And” between values parts separate entries of the source, which are not always exact repeats. Equal entries are not always repeated. ± gives the expanded uncertainty stated by the source.

Assay: mn = molality of the nth substance listed, in mol/kg
Settings: 100 kPa, Liquid, Vibrating tube method

## N[C@@H](Cc1ccc(O)cc1)C(=O)O [3-(p-hydroxyphenyl)-L-alanine] + O
278.65 K, m1 = 0.0005
  mass density: 999.962 ± 0.1 kg/m3
278.65 K, m1 = 0.001
  mass density: 999.995 ± 0.1 kg/m3
278.65 K, m1 = 0.0011
  mass density: 1000.02 ± 0.1 kg/m3
278.65 K, m1 = 0.0022
  mass density: 1000.09 ± 0.1 kg/m3
278.65 K, m1 = 0.0026
  mass density: 1000.11 ± 0.1 kg/m3
278.65 K, m1 = 0.0035
  mass density: 1000.18 ± 0.1 kg/m3
278.65 K, m1 = 0.0036
  mass density: 1000.18 ± 0.1 kg/m3
278.65 K, m1 = 0.0038
  mass density: 1000.18 ± 0.1 kg/m3
278.65 K, m1 = 0.0045
  mass density: 1000.23 ± 0.1 kg/m3 and 1000.24 ± 0.1 kg/m3
278.65 K, m1 = 0.0047
  mass density: 1000.24 ± 0.1 kg/m3
278.65 K, m1 = 0.0053
  mass density: 1000.28 ± 0.1 kg/m3 and 1000.29 ± 0.1 kg/m3
278.65 K, m1 = 0.0055
  mass density: 1000.28 ± 0.1 kg/m3
279.15 K, m1 = 0.0005
  mass density: 999.948 ± 0.1 kg/m3
279.15 K, m1 = 0.001
  mass density: 999.981 ± 0.1 kg/m3
279.15 K, m1 = 0.0011
  mass density: 1000.01 ± 0.1 kg/m3
279.15 K, m1 = 0.0022
  mass density: 1000.08 ± 0.1 kg/m3
279.15 K, m1 = 0.0026
  mass density: 1000.1 ± 0.1 kg/m3
279.15 K, m1 = 0.0035
  mass density: 1000.16 ± 0.1 kg/m3
279.15 K, m1 = 0.0036
  mass density: 1000.16 ± 0.1 kg/m3
279.15 K, m1 = 0.0038
  mass density: 1000.17 ± 0.1 kg/m3
279.15 K, m1 = 0.0045
  mass density: 1000.22 ± 0.1 kg/m3 and 1000.23 ± 0.1 kg/m3
279.15 K, m1 = 0.0047
  mass density: 1000.22 ± 0.1 kg/m3
279.15 K, m1 = 0.0053
  mass density: 1000.27 ± 0.1 kg/m3 and 1000.28 ± 0.1 kg/m3
279.15 K, m1 = 0.0055
  mass density: 1000.27 ± 0.1 kg/m3
279.65 K, m1 = 0.0005
  mass density: 999.932 ± 0.1 kg/m3
279.65 K, m1 = 0.001
  mass density: 999.964 ± 0.1 kg/m3
279.65 K, m1 = 0.0011
  mass density: 999.989 ± 0.1 kg/m3
279.65 K, m1 = 0.0022
  mass density: 1000.06 ± 0.1 kg/m3
279.65 K, m1 = 0.0026
  mass density: 1000.08 ± 0.1 kg/m3
279.65 K, m1 = 0.0035
  mass density: 1000.14 ± 0.1 kg/m3
279.65 K, m1 = 0.0036
  mass density: 1000.14 ± 0.1 kg/m3
279.65 K, m1 = 0.0038
  mass density: 1000.15 ± 0.1 kg/m3
279.65 K, m1 = 0.0045
  mass density: 1000.2 ± 0.1 kg/m3 and 1000.21 ± 0.1 kg/m3
279.65 K, m1 = 0.0047
  mass density: 1000.21 ± 0.1 kg/m3
279.65 K, m1 = 0.0053
  mass density: 1000.25 ± 0.1 kg/m3 and 1000.26 ± 0.1 kg/m3
279.65 K, m1 = 0.0055
  mass density: 1000.25 ± 0.1 kg/m3
280.15 K, m1 = 0.0005
  mass density: 999.91 ± 0.1 kg/m3
280.15 K, m1 = 0.001
  mass density: 999.941 ± 0.1 kg/m3
280.15 K, m1 = 0.0011
  mass density: 999.968 ± 0.1 kg/m3
280.15 K, m1 = 0.0022
  mass density: 1000.04 ± 0.1 kg/m3
280.15 K, m1 = 0.0026
  mass density: 1000.06 ± 0.1 kg/m3
280.15 K, m1 = 0.0035
  mass density: 1000.12 ± 0.1 kg/m3
280.15 K, m1 = 0.0036
  mass density: 1000.12 ± 0.1 kg/m3
280.15 K, m1 = 0.0038
  mass density: 1000.13 ± 0.1 kg/m3
280.15 K, m1 = 0.0045
  mass density: 1000.18 ± 0.1 kg/m3 and 1000.19 ± 0.1 kg/m3
280.15 K, m1 = 0.0047
  mass density: 1000.18 ± 0.1 kg/m3
280.15 K, m1 = 0.0053
  mass density: 1000.23 ± 0.1 kg/m3 and 1000.24 ± 0.1 kg/m3
280.15 K, m1 = 0.0055
  mass density: 1000.23 ± 0.1 kg/m3
280.65 K, m1 = 0.0005
  mass density: 999.886 ± 0.1 kg/m3
280.65 K, m1 = 0.001
  mass density: 999.918 ± 0.1 kg/m3
280.65 K, m1 = 0.0011
  mass density: 999.946 ± 0.1 kg/m3
280.65 K, m1 = 0.0022
  mass density: 1000.01 ± 0.1 kg/m3
280.65 K, m1 = 0.0026
  mass density: 1000.03 ± 0.1 kg/m3
280.65 K, m1 = 0.0035
  mass density: 1000.1 ± 0.1 kg/m3
280.65 K, m1 = 0.0036
  mass density: 1000.1 ± 0.1 kg/m3
280.65 K, m1 = 0.0038
  mass density: 1000.1 ± 0.1 kg/m3
280.65 K, m1 = 0.0045
  mass density: 1000.15 ± 0.1 kg/m3 and 1000.16 ± 0.1 kg/m3
280.65 K, m1 = 0.0047
  mass density: 1000.16 ± 0.1 kg/m3
280.65 K, m1 = 0.0053
  mass density: 1000.2 ± 0.1 kg/m3 and 1000.21 ± 0.1 kg/m3
280.65 K, m1 = 0.0055
  mass density: 1000.2 ± 0.1 kg/m3
281.15 K, m1 = 0.0005
  mass density: 999.858 ± 0.1 kg/m3
281.15 K, m1 = 0.001
  mass density: 999.89 ± 0.1 kg/m3
281.15 K, m1 = 0.0011
  mass density: 999.917 ± 0.1 kg/m3
281.15 K, m1 = 0.0022
  mass density: 999.984 ± 0.1 kg/m3
281.15 K, m1 = 0.0026
  mass density: 1000 ± 0.1 kg/m3
281.15 K, m1 = 0.0035
  mass density: 1000.07 ± 0.1 kg/m3
281.15 K, m1 = 0.0036
  mass density: 1000.07 ± 0.1 kg/m3
281.15 K, m1 = 0.0038
  mass density: 1000.08 ± 0.1 kg/m3
281.15 K, m1 = 0.0045
  mass density: 1000.13 ± 0.1 kg/m3 and 1000.14 ± 0.1 kg/m3
281.15 K, m1 = 0.0047
  mass density: 1000.13 ± 0.1 kg/m3
281.15 K, m1 = 0.0053
  mass density: 1000.17 ± 0.1 kg/m3 and 1000.18 ± 0.1 kg/m3
281.15 K, m1 = 0.0055
  mass density: 1000.17 ± 0.1 kg/m3
281.65 K, m1 = 0.0005
  mass density: 999.824 ± 0.1 kg/m3
281.65 K, m1 = 0.001
  mass density: 999.857 ± 0.1 kg/m3
281.65 K, m1 = 0.0011
  mass density: 999.883 ± 0.1 kg/m3
281.65 K, m1 = 0.0022
  mass density: 999.951 ± 0.1 kg/m3
281.65 K, m1 = 0.0026
  mass density: 999.971 ± 0.1 kg/m3
281.65 K, m1 = 0.0035
  mass density: 1000.03 ± 0.1 kg/m3
281.65 K, m1 = 0.0036
  mass density: 1000.04 ± 0.1 kg/m3
281.65 K, m1 = 0.0038
  mass density: 1000.04 ± 0.1 kg/m3
281.65 K, m1 = 0.0045
  mass density: 1000.09 ± 0.1 kg/m3 and 1000.1 ± 0.1 kg/m3
281.65 K, m1 = 0.0047
  mass density: 1000.1 ± 0.1 kg/m3
281.65 K, m1 = 0.0053
  mass density: 1000.14 ± 0.1 kg/m3 and 1000.15 ± 0.1 kg/m3
281.65 K, m1 = 0.0055
  mass density: 1000.14 ± 0.1 kg/m3
282.15 K, m1 = 0.0005
  mass density: 999.79 ± 0.1 kg/m3
282.15 K, m1 = 0.001
  mass density: 999.821 ± 0.1 kg/m3
282.15 K, m1 = 0.0011
  mass density: 999.848 ± 0.1 kg/m3
282.15 K, m1 = 0.0022
  mass density: 999.916 ± 0.1 kg/m3
282.15 K, m1 = 0.0026
  mass density: 999.937 ± 0.1 kg/m3
282.15 K, m1 = 0.0035
  mass density: 1000 ± 0.1 kg/m3
282.15 K, m1 = 0.0036
  mass density: 1000 ± 0.1 kg/m3
282.15 K, m1 = 0.0038
  mass density: 1000.01 ± 0.1 kg/m3
282.15 K, m1 = 0.0045
  mass density: 1000.06 ± 0.1 kg/m3 and 1000.07 ± 0.1 kg/m3
282.15 K, m1 = 0.0047
  mass density: 1000.06 ± 0.1 kg/m3
282.15 K, m1 = 0.0053
  mass density: 1000.1 ± 0.1 kg/m3 and 1000.12 ± 0.1 kg/m3
282.15 K, m1 = 0.0055
  mass density: 1000.1 ± 0.1 kg/m3
282.65 K, m1 = 0.0005
  mass density: 999.751 ± 0.1 kg/m3
282.65 K, m1 = 0.001
  mass density: 999.781 ± 0.1 kg/m3
282.65 K, m1 = 0.0011
  mass density: 999.809 ± 0.1 kg/m3
282.65 K, m1 = 0.0022
  mass density: 999.876 ± 0.1 kg/m3
282.65 K, m1 = 0.0026
  mass density: 999.897 ± 0.1 kg/m3
282.65 K, m1 = 0.0035
  mass density: 999.961 ± 0.1 kg/m3
282.65 K, m1 = 0.0036
  mass density: 999.962 ± 0.1 kg/m3
282.65 K, m1 = 0.0038
  mass density: 999.967 ± 0.1 kg/m3
282.65 K, m1 = 0.0045
  mass density: 1000.02 ± 0.1 kg/m3 and 1000.03 ± 0.1 kg/m3
282.65 K, m1 = 0.0047
  mass density: 1000.02 ± 0.1 kg/m3
282.65 K, m1 = 0.0053
  mass density: 1000.07 ± 0.1 kg/m3 and 1000.08 ± 0.1 kg/m3
282.65 K, m1 = 0.0055
  mass density: 1000.07 ± 0.1 kg/m3
283.15 K, m1 = 0.0005
  mass density: 999.71 ± 0.1 kg/m3
283.15 K, m1 = 0.001
  mass density: 999.741 ± 0.1 kg/m3
283.15 K, m1 = 0.0011
  mass density: 999.765 ± 0.1 kg/m3
283.15 K, m1 = 0.0022
  mass density: 999.835 ± 0.1 kg/m3
283.15 K, m1 = 0.0026
  mass density: 999.854 ± 0.1 kg/m3
283.15 K, m1 = 0.0035
  mass density: 999.919 ± 0.1 kg/m3
283.15 K, m1 = 0.0036
  mass density: 999.92 ± 0.1 kg/m3
283.15 K, m1 = 0.0038
  mass density: 999.925 ± 0.1 kg/m3
283.15 K, m1 = 0.0045
  mass density: 999.976 ± 0.1 kg/m3 and 999.985 ± 0.1 kg/m3
283.15 K, m1 = 0.0047
  mass density: 999.98 ± 0.1 kg/m3
283.15 K, m1 = 0.0053
  mass density: 1000.02 ± 0.1 kg/m3 and 1000.03 ± 0.1 kg/m3
283.15 K, m1 = 0.0055
  mass density: 1000.02 ± 0.1 kg/m3
